Experimental findings from patent US9890171B2, “Aldosterone synthase inhibitors” (Boehringer Ingelheim International GmbH, priority 2014, dated 2018) are described below.

Each structure is given as a SMILES string.

Chain of aldosterone synthase (CYP11B2) (A0A2K5UPL9 1-503): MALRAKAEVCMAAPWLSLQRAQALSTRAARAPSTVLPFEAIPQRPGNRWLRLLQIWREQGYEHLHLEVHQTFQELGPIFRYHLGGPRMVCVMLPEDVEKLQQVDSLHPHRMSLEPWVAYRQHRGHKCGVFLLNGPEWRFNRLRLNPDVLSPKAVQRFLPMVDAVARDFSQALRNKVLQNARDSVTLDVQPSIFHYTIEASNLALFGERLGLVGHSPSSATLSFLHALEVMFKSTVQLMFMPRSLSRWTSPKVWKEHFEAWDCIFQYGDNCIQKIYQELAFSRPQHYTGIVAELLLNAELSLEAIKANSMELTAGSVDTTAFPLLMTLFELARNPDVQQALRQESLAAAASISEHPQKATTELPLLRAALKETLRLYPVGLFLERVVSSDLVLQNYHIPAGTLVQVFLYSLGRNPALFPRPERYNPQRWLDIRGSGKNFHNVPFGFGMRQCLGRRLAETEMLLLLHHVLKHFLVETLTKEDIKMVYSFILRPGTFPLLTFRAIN

The target in this assay is aldosterone synthase (CYP11B2) (Macaca fascicularis, UniProt A0A2K5UPL9). Kind of assay: aldosterone synthase inhibition assay. The settings on record: cynomolgus adrenal gland mitochondria, 2 μM corticosterone, aldosterone quantified by mass spectrometry. The format is biochemical, cynomolgus monkey. How it is done:
The aldosterone synthase inhibition assay employs cynomolgus adrenal gland mitochondria as the source of aldosterone synthase (CYP11B2). Mitochondria are prepared from frozen cynomolgus monkey adrenal glands according to Method A described in by J. D. McGarry et al. (Biochem. J., 1983, 214, 21-28), with a final resuspension in the AT buffer described in R. Yamaguchi et al. (Cell Death and Differentiation, 2007, 14, 616-624), frozen as aliquots in liquid nitrogen and stored at −80° C. until use.
Assays are performed in 96-well format in a final volume of 60 μL/well, containing 100 mM potassium phosphate, pH 7.4, 1% (v/v) DMSO, and additionally, 2 μM of corticosterone and […] of mitochondrial protein. Reactions are started by the addition of NADPH to 1 mM and allowed to proceed for 60-90 minutes at 37° C. Reactions are terminated by the addition of […]. One hundred microliters are then transferred to a glass filter plate and centrifuged at 570×g for 5 minutes and the filtrate is collected. Reaction product aldosterone is quantified by mass spectrometry. To determine the assay blank value (0% activity), NADPH is omitted from some reactions.
Dose dependent inhibition is quantified by the inclusion of compound at various concentrations. Maximum activity (100%) is defined by reactions containing NADPH, but without compound. Activities at each concentration are expressed as a percentage of the maximum activity (y-axis) and plotted against concentration of compound (x-axis) and the concentration corresponding to 50% activity (IC50) determined using the XLFit curve-fitting program using a 4-parameter logistic model.
Broadly, the IC50 is the concentration that inhibits the measured activity by half. Low readings indicate greater potency in that assay, high ones weaker potency in that assay. Turning to `OC1COCc2c(-c3ccc4cn[nH]c4c3)cncc21` (single isomer, unassigned) [Compound 37, 8-(1H-Indazol-6-yl)-3,4-dihydro-1H-pyrano[4,3-c]pyridin-4-ol], half-maximal inhibition (IC50) was put at 94.4 nM.

Take `OC1COCc2c(-c3ccc4c(c3)OCCO4)cncc21` (single isomer, unassigned) [Compound 38, 8-(2,3-Dihydro-benzo[1,4]dioxin-6-yl)-3,4-dihydro-1H-pyrano[4,3-c]pyridin-4-ol]: half-maximal inhibition (IC50) was put at 12 nM.

For `Cc1nn(C)c(C)c1-c1cncc2c1COCC2O` (single isomer, unassigned) [Compound 39, 8-(1,3,5-Trimethyl-1H-pyrazol-4-yl)-3,4-dihydro-1H-pyrano[4,3-c]pyridin-4-ol], the IC50 amounted to 437 nM.

As for `OC1COCc2c(-c3cnc4[nH]ccc4c3)cncc21` (single isomer, unassigned) [Compound 40, 8-(1H-Pyrrolo[2,3-b]pyridin-5-yl)-3,4-dihydro-1H-pyrano[4,3-c]pyridin-4-ol], half-maximal inhibition (IC50) was put at 186 nM. This IC50 lies about 2.3-fold lower than the previous one.

In turn, `Cc1c(-c2cncc3c2COCC3O)cnn1C` (single isomer, unassigned) [Compound 41, 8-(1,5-Dimethyl-1H-pyrazol-4-yl)-3,4-dihydro-1H-pyrano[4,3-c]pyridin-4-ol] displayed an IC50 of 1000 nM.

In turn, `Cn1nc(C(F)(F)F)cc1-c1cncc2c1COCC2O` (single isomer, unassigned) [Compound 42, 8-(2-Methyl-5-trifluoromethyl-2H-pyrazol-3-yl)-3,4-dihydro-1H-pyrano[4,3-c]pyridin-4-ol] gave an IC50 of 367 nM.

Turning to `OC1COCc2c(-c3ccc4c(c3)OCCCO4)cncc21` (single isomer, unassigned) [Compound 43, 8-(3,4-Dihydro-2H-benzo[b][1,4]dioxepin-7-yl)-3,4-dihydro-1H-pyrano[4,3-c]pyridin-4-ol], the IC50 stood at 22 nM.

With `Cn1ncc2ccc(-c3cncc4c3COCC4O)cc21` (single isomer, unassigned) [Compound 44, 8-(1-Methyl-1H-indazol-6-yl)-3,4-dihydro-1H-pyrano[4,3-c]pyridin-4-ol], the IC50 came to 8.5 nM. Against the preceding molecule, the IC50 is about 2.6-fold lower.

For the molecule `OC1COCc2c(-c3ccc4cnccc4c3)cncc21` (single isomer, unassigned) [Compound 45, 8-Isoquinolin-6-yl-3,4-dihydro-1H-pyrano[4,3-c]pyridin-4-ol], the IC50 was 5.8 nM.

The molecule `OC1COCc2c(-c3cnn(C4CC4)c3)cncc21` (single isomer, unassigned) [Compound 46, 8-(1-Cyclopropyl-1H-pyrazol-4-yl)-3,4-dihydro-1H-pyrano[4,3-c]pyridin-4-ol] registered an IC50 of 302 nM.

Take `OC1COCc2c(-c3ccc4[nH]ncc4c3)cncc21` (single isomer, unassigned) [Compound 47, 8-(1H-Indazol-5-yl)-3,4-dihydro-1H-pyrano[4,3-c]pyridin-4-ol]: 50 nM corresponded to half-maximal inhibition (IC50).

`OC1COCc2c(-c3ccc4[nH]ccc4c3)cncc21` (single isomer, unassigned) [Compound 48, 8-(1H-Indol-5-yl)-3,4-dihydro-1H-pyrano[4,3-c]pyridin-4-ol] had an IC50 of 17.4 nM.

As to `OC1COCc2c(-c3ccc4ocnc4c3)cncc21` (single isomer, unassigned) [Compound 49, 8-Benzooxazol-5-yl-3,4-dihydro-1H-pyrano[4,3-c]pyridin-4-ol], the IC50 stood at 55.7 nM.

Molecule `Cn1cc2ccc(-c3cncc4c3COCC4O)cc2n1` (single isomer, unassigned) [Compound 50, 8-(2-Methyl-2H-indazol-6-yl)-3,4-dihydro-1H-pyrano[4,3-c]pyridin-4-ol] returned an IC50 of 1200 nM.

In the case of `CN1C(=O)Cc2cc(-c3cncc4c3COCC4O)ccc21` (single isomer, unassigned) [Compound 51, 5-(4-Hydroxy-3,4-dihydro-1H-pyrano[4,3-c]pyridin-8-yl)-1-methyl-1,3-dihydro-indol-2-one], the IC50 is 24.2 nM. This IC50 is about 50-fold lower than that of the molecule before.

As for `O=C1Cc2cc(-c3cncc4c3COCC4O)ccc2N1` (single isomer, unassigned) [Compound 52, 5-(4-Hydroxy-3,4-dihydro-1H-pyrano[4,3-c]pyridin-8-yl)-1,3-dihydro-indol-2-one], the IC50 turned out to be 64.1 nM.

For `OC1COCc2c(-c3ccc4ocnc4c3)cncc21` (single isomer, unassigned) [Compound 53, 8-Benzooxazol-5-yl-3,4-dihydro-1H-pyrano[4,3-c]pyridin-4-ol], the midpoint of inhibition, the IC50, lay at 808 nM. Compared with the last molecule, the IC50 is about 13-fold higher.

For the molecule `CN1C(=O)Cc2cc(-c3cncc4c3COCC4O)ccc21` (single isomer, unassigned) [Compound 54, 5-(4-Hydroxy-3,4-dihydro-1H-pyrano[4,3-c]pyridin-8-yl)-1-methyl-1,3-dihydro-indol-2-one], the IC50 was determined as 149 nM.

The molecule `Cn1nc(F)c2ccc(-c3cncc4c3COCC4O)cc21` (single isomer, unassigned) [Compound 55, 8-(3-Fluoro-1-methyl-1H-indazol-6-yl)-3,4-dihydro-1H-pyrano[4,3-c]pyridin-4-ol] had an IC50 of 7.6 nM.

As for `CCC(=O)NC1COCc2c(-c3ccc4ocnc4c3)cncc21` (single isomer, unassigned) [Compound 56, N-(8-Benzooxazol-5-yl-3,4-dihydro-1H-pyrano[4,3-c]pyridin-4-yl)-propionamide], the IC50 is 85.8 nM. Against the preceding molecule, the IC50 is about 11-fold higher.

Consider `CCC(=O)NC1COCc2c(-c3ccc4ncn(C)c4c3)cncc21` (single isomer, unassigned) [Compound 57, N-[8-(3-Methyl-3H-benzoimidazol-5-yl)-3,4-dihydro-1H-pyrano[4,3-c]pyridin-4-yl]-propionamide], for which 219 nM corresponded to half-maximal inhibition (IC50).

`CCC(=O)NC1COCc2c(-c3ccc4c(c3)CC(=O)N4C)cncc21` (single isomer, unassigned) [Compound 58, N-[8-(1-Methyl-2-oxo-2,3-dihydro-1H-indol-5-yl)-3,4-dihydro-1H-pyrano[4,3-c]pyridin-4-yl]-propionamide] returned an IC50 of 130 nM.

In turn, `CCC(=O)NC1COCc2c(-c3ccc4c(c3)CC(=O)N4)cncc21` (single isomer, unassigned) [Compound 59, N-[8-(2-Oxo-2,3-dihydro-1H-indol-5-yl)-3,4-dihydro-1H-pyrano[4,3-c]pyridin-4-yl]-propionamide] returned an IC50 of 179 nM.

`CCC(=O)NC1COCc2c(-c3ccc4nnn(C)c4c3)cncc21` (single isomer, unassigned) [Compound 60, N-[8-(3-Methyl-3H-benzotriazol-5-yl)-3,4-dihydro-1H-pyrano[4,3-c]pyridin-4-yl]-propionamide] had an IC50 of 75.5 nM.

Regarding `CCC(=O)NC1COCc2c(-c3ccc4[nH]nc(C)c4c3)cncc21` (single isomer, unassigned) [Compound 61, N-[8-(3-Methyl-1H-indazol-5-yl)-3,4-dihydro-1H-pyrano[4,3-c]pyridin-4-yl]-propionamide], the midpoint of inhibition, the IC50, lay at 36.2 nM.

With `CCC(=O)NC1COCc2c(-c3ccc4c(C)n[nH]c4c3)cncc21` (single isomer, unassigned) [Compound 62, N-[8-(3-Methyl-1H-indazol-6-yl)-3,4-dihydro-1H-pyrano[4,3-c]pyridin-4-yl]-propionamide], the IC50 was 139 nM.

Molecule `CCS(=O)(=O)NC1COCc2c(-c3ccc4c(c3)CC(=O)N4C)cncc21` (single isomer, unassigned) [Compound 63, Ethanesulfonic acid [8-(1-methyl-2-oxo-2,3-dihydro-1H-indol-5-yl)-3,4-dihydro-1H-pyrano[4,3-c]pyridin-4-yl]-amide] registered an IC50 of 85.2 nM. Compared with the last molecule, the IC50 is about 1.6-fold lower.

`CCS(=O)(=O)NC1COCc2c(-c3ccc4c(c3)CC(=O)N4)cncc21` (single isomer, unassigned) [Compound 64, Ethanesulfonic acid [8-(2-oxo-2,3-dihydro-1H-indol-5-yl)-3,4-dihydro-1H-pyrano[4,3-c]pyridin-4-yl]-amide] had an IC50 of 611 nM.

Turning to `CCS(=O)(=O)NC1COCc2c(-c3ccc4nnn(C)c4c3)cncc21` (single isomer, unassigned) [Compound 65, Ethanesulfonic acid [8-(3-methyl-3H-benzotriazol-5-yl)-3,4-dihydro-1H-pyrano[4,3-c]pyridin-4-yl]-amide], half-maximal inhibition (IC50) required 36.1 nM.

The molecule `CCS(=O)(=O)NC1COCc2c(-c3ccc4c(C)n[nH]c4c3)cncc21` (single isomer, unassigned) [Compound 66, Ethanesulfonic acid [8-(3-methyl-1H-indazol-6-yl)-3,4-dihydro-1H-pyrano[4,3-c]pyridin-4-yl]-amide] had an IC50 of 1000 nM. Against the preceding molecule, the IC50 is about 28-fold higher.

`CCS(=O)(=O)NC1COCc2c(-c3ccc4ncn(C)c4c3)cncc21` (single isomer, unassigned) [Compound 67, Ethanesulfonic acid [8-(3-methyl-3H-benzoimidazol-5-yl)-3,4-dihydro-1H-pyrano[4,3-c]pyridin-4-yl]-amide] showed an IC50 of 110 nM.

For the molecule `CCS(=O)(=O)NC1COCc2c(-c3ccc4c(F)nn(C)c4c3)cncc21` (single isomer, unassigned) [Compound 68, Ethanesulfonic acid [8-(3-fluoro-1-methyl-1H-indazol-6-yl)-3,4-dihydro-1H-pyrano[4,3-c]pyridin-4-yl]-amide], the IC50 came out at 15.9 nM.
